The values below come from patent US8933103B2, “Pyridone derivatives” (Daiichi Sankyo Company, Limited, priority 2012, dated 2015).

The assay addresses T1, AXL (fusion protein of amino acids 464-885 of the intracellular domain of human AXL with glutathione transferase) (Homo sapiens, UniProt P30530).
T1 sequence (P30530 464-885 isoform P30530-2): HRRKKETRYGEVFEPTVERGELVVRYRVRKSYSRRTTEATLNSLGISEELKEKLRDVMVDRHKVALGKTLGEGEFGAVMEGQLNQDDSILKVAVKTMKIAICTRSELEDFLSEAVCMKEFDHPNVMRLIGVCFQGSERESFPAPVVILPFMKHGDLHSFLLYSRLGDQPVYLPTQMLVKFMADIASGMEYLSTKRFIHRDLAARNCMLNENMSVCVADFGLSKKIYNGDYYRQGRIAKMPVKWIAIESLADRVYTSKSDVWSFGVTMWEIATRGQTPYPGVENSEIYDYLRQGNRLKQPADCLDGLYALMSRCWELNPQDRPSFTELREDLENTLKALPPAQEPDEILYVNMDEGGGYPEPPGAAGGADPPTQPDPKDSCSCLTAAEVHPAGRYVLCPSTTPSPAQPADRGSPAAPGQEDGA
Description: Cell-Free Axl Kinase Inhibitory Activity.
Description: Next, the test compound was diluted with DMSO, and 1 μl of this diluted solution was added to each well.
Five microliters of this solution were added to each well to initiate a kinase reaction. The plate was incubated at 28° C. for 1.5 hours, and 40 μl of a termination buffer (100 mM HEPES (pH 7.4), 0.015% Brij-35, 40 mM EDTA, 0.1% Coating Reagent 3) was added to each well to terminate the reaction.
The substrate peptide and the phosphorylated peptide in the reaction solution were separated and quantified by EZ Reader II (Caliper Life Sciences).
IC50 was determined from inhibition data for 12 test compound concentrations by nonlinear regression (four-parameter logistic regression) using the following formula.
`COc1ccc(-c2cnc(N)c(-c3ccc(NC(=O)c4cn(Cc5ccc(F)cc5)cc(C(=O)N5CCCC5)c4=O)cc3)c2)cc1OC` [Example 26, N-{4-[2-Amino-5-(3,4-dimethoxyphenyl)pyridin-3-yl]phenyl}-1-(4-fluorobenzyl)-4-oxo-5-(pyrrolidin-1-ylcarbonyl)-1,4-dihydropyridine-3-carboxamide]: the half-inhibitory concentration (IC50) is 0.1 to 1 nM.

On to `COc1ccc(-c2cnc(N)c(-c3ccc(NC(=O)c4cn(Cc5ccc(F)cc5)cc(C(=O)N5C[C@@H](C)O[C@@H](C)C5)c4=O)cc3)c2)cc1OC` [Example 27, N-{4-[2-Amino-5-(3,4-dimethoxyphenyl)pyridin-3-yl]phenyl}-5-{[(2R,6S)-2,6-dimethylmorpholin-4-yl]carbonyl}-1-(4-fluorobenzyl)-4-oxo-1,4-dihydropyridine-3-carboxamide], for which the concentration for half-maximal inhibition (IC50) fell in the range of 0.1 to 1 nM. The compound `COc1ccc(-c2cnc(N)c(-c3ccc(NC(=O)c4cn(Cc5ccc(F)cc5)cc(-c5nnc(C)o5)c4=O)cc3)c2)cc1OC` [Example 28, N-{4-[2-Amino-5-(3,4-dimethoxyphenyl)pyridin-3-yl]phenyl}-1-(4-fluorobenzyl)-5-(5-methyl-1,3,4-oxadiazol-2-yl)-4-oxo-1,4-dihydropyridine-3-carboxamide] yielded an IC50 of 0.1 to 1 nM. The compound `COc1ccc(-c2cnc(N)c(-c3ccc(NC(=O)c4cn(CC(F)(F)F)cc(-c5ccc(F)cc5)c4=O)cc3F)c2)cc1OC` [Example 29, N-{4-[2-Amino-5-(3,4-dimethoxyphenyl)pyridin-3-yl]-3-fluorophenyl}-5-(4-fluorophenyl)-4-oxo-1-(2,2,2-trifluoroethyl)-1,4-dihydropyridine-3-carboxamide] gave a 50% inhibitory concentration (IC50) of 0.1 to 1 nM. The compound `COc1cc(-c2cnc(N)c(-c3ccc(NC(=O)c4cn(CC(F)(F)F)cc(-c5ccc(F)cc5)c4=O)cc3)c2)ccc1O` [Example 37, N-{4-[2-Amino-5-(4-hydroxy-3-methoxyphenyl)pyridin-3-yl]phenyl}-5-(4-fluorophenyl)-4-oxo-1-(2,2,2-trifluoroethyl)-1,4-dihydropyridine-3-carboxamide] showed an IC50 of 1 to 10 nM.

Turning to `COCCOc1ccc(-c2cnc(N)c(-c3ccc(NC(=O)c4cn(CC(F)(F)F)cc(-c5ccc(F)cc5)c4=O)cc3)c2)cc1OC` [Example 38, N-(4-{2-Amino-5-[3-methoxy-4-(2-methoxyethoxy)phenyl]pyridin-3-yl}phenyl)-5-(4-fluorophenyl)-4-oxo-1-(2,2,2-trifluoroethyl)-1,4-dihydropyridine-3-carboxamide], the 50% inhibitory concentration (IC50) lay within 0.1 to 1 nM.

`COc1cc(-c2cnc(N)c(-c3ccc(NC(=O)c4cn(CC(F)(F)F)cc(-c5ccc(F)cc5)c4=O)cc3)c2)ccc1OCCN1CCCC1` [Example 39, N-[4-(2-Amino-5-{3-methoxy-4-[2-(pyrrolidin-1-yl)ethoxy]phenyl}pyridin-3-yl)phenyl]-5-(4-fluorophenyl)-4-oxo-1-(2,2,2-trifluoroethyl)-1,4-dihydropyridine-3-carboxamide]: the half-inhibitory concentration (IC50) was in the range of 0.1 to 1 nM.

Regarding `COc1cc(-c2cnc(N)c(-c3ccc(NC(=O)c4cn(CCF)cc(-c5ccccc5)c4=O)cc3)c2)ccc1OCCN1CCCC1` [Example 40, N-(4-{2-Amino-5-[3-methoxy-4-(2-pyrrolidin-1-ylethoxy)phenyl]pyridin-3-yl}phenyl)-1-(2-fluoroethyl)-4-oxo-5-phenyl-1,4-dihydropyridine-3-carboxamide], the half-maximal inhibitory concentration (IC50) fell in the range of 0.1 to 1 nM.

For the compound `COc1cc(-c2cnc(N)c(-c3ccc(NC(=O)c4cn(Cc5ccccc5)cc(-c5ccc(F)cc5)c4=O)cc3)c2)ccc1OC[C@H]1COCCO1` [Example 41, N-[4-(2-Amino-5-{4-[(2R)-1,4-dioxan-2-ylmethoxy]-3-methoxyphenyl}pyridin-3-yl)phenyl]-1-benzyl-5-(4-fluorophenyl)-4-oxo-1,4-dihydropyridine-3-carboxamide], the IC50 lay within 1 to 10 nM. `COc1cc(-c2cnc(N)c(-c3ccc(NC(=O)c4cn(CC(F)(F)F)cc(-c5ccc(F)cc5)c4=O)cc3)c2)ccc1OC[C@H]1COCCO1` [Example 42, N-[4-(2-Amino-5-{4-[(2R)-1,4-dioxan-2-ylmethoxy]-3-methoxyphenyl}pyridin-3-yl)phenyl]-5-(4-fluorophenyl)-4-oxo-1-(2,2,2-trifluoroethyl)-1,4-dihydropyridine-3-carboxamide]: the concentration for half-maximal inhibition (IC50) is 0.1 to 1 nM. On to `COc1cc(-c2cnc(N)c(-c3ccc(NC(=O)c4cn(CCF)cc(-c5ccc(F)cc5)c4=O)cc3)c2)ccc1OC[C@H]1COCCO1` [Example 43, N-[4-(2-Amino-5-{4-[(2R)-1,4-dioxan-2-ylmethoxy]-3-methoxyphenyl}pyridin-3-yl)phenyl]-1-(2-fluoroethyl)-5-(4-fluorophenyl)-4-oxo-1,4-dihydropyridine-3-carboxamide], for which the IC50 lay within 1 to 10 nM. In turn, `COc1cc(-c2cnc(N)c(-c3ccc(NC(=O)c4cn(CCF)cc(-c5ccccc5)c4=O)cc3)c2)ccc1OC[C@H]1COCCO1` [Example 44, N-[4-(2-Amino-5-{4-[(2R)-1,4-dioxan-2-ylmethoxy]-3-methoxyphenyl}pyridin-3-yl)phenyl]-1-(2-fluoroethyl)-4-oxo-5-phenyl-1,4-dihydropyridine-3-carboxamide] yielded a 50% inhibitory concentration (IC50) of 1 to 10 nM. Regarding `CCn1cc(C(=O)Nc2ccc(-c3cc(-c4ccc(OC[C@H]5COCCO5)c(OC)c4)cnc3N)cc2)c(=O)c(-c2ccccc2)c1` [Example 45, N-[4-(2-Amino-5-{4-[(2R)-1,4-dioxan-2-ylmethoxy]-3-methoxyphenyl}pyridin-3-yl)phenyl]-1-ethyl-4-oxo-5-phenyl-1,4-dihydropyridine-3-carboxamide], the half-inhibitory concentration (IC50) lay within 1 to 10 nM. With `CCn1cc(C(=O)Nc2ccc(-c3cc(-c4ccc(OC[C@H]5COCCO5)c(OC)c4)cnc3N)cc2)c(=O)c(-c2ccc(F)cc2)c1` [Example 46, N-[4-(2-Amino-5-{4-[(2R)-1,4-dioxan-2-ylmethoxy]-3-methoxyphenyl}pyridin-3-yl)phenyl]-1-ethyl-5-(4-fluorophenyl)-4-oxo-1,4-dihydropyridine-3-carboxamide], the 50% inhibitory concentration (IC50) is 1 to 10 nM. The compound `CCn1cc(C(=O)Nc2ccc(-c3cc(-c4cnn(C)c4)cnc3N)cc2)c(=O)c(-c2ccc(F)cc2)c1` [Example 47, N-{4-[2-Amino-5-(1-methyl-1H-pyrazol-4-yl)pyridin-3-yl]phenyl}-1-ethyl-5-(4-fluorophenyl)-4-oxo-1,4-dihydropyridine-3-carboxamide] gave a half-inhibitory concentration (IC50) of 1 to 10 nM. The figure for `Cn1cc(-c2cnc(N)c(-c3ccc(NC(=O)c4cn(CCF)cc(-c5ccc(F)cc5)c4=O)cc3)c2)cn1` [Example 48, N-{4-[2-Amino-5-(1-methyl-1H-pyrazol-4-yl)pyridin-3-yl]phenyl}-1-(2-fluoroethyl)-5-(4-fluorophenyl)-4-oxo-1,4-dihydropyridine-3-carboxamide] is 1 to 10 nM; for `Cn1cc(-c2cnc(N)c(-c3ccc(NC(=O)c4cn(CC(F)F)cc(-c5ccc(F)cc5)c4=O)cc3)c2)cn1` [Example 49, N-{4-[2-Amino-5-(1-methyl-1H-pyrazol-4-yl)pyridin-3-yl]phenyl}-1-(2,2-difluoroethyl)-5-(4-fluorophenyl)-4-oxo-1,4-dihydropyridine-3-carboxamide] it is 1 to 10 nM; for `Cn1cc(-c2cnc(N)c(-c3ccc(NC(=O)c4cn(CC(F)(F)F)cc(-c5ccc(F)cc5)c4=O)cc3)c2)cn1` [Example 50, N-{4-[2-Amino-5-(1-methyl-1H-pyrazol-4-yl)pyridin-3-yl]phenyl}-5-(4-fluorophenyl)-4-oxo-1-(2,2,2-trifluoroethyl)-1,4-dihydropyridine-3-carboxamide] it is 0.1 to 1 nM.
